From paper PMC6773697, “Antileukemic activity of novel adenosine derivatives” (Scientific Reports, 2019) come the findings set out here.

Holding throughout (assay type): cell-based, human
Assay [1] has as its system caspase-3/7 in THP-1 cells. Description: Caspase 3/7 assay, THP-1. The note with it: THP-1, 48 h. As to the method:
(§1) The activities of caspases-3 and −7 were estimated with CellEvent™ Caspse-3/7 Green Detection Reagent (Thermo Fisher Scientific) according to the manufacturer’s protocol. The cells were seeded on 96-well plates (15 × 10^3/ well) and 24 h later, incubated with the appropriate drugs for 24 h or 48 h. The cells were fixed by adding a final concentration of 4% paraformaldehyde solution (10 min, room temperature). Cells were labeled with CellEvent™Caspase-3/7 Green Detection Reagent (5 µM), followed by Hoechst 33342 (5 µg/ml) for 15 minutes in complete medium3. Caspase-3/7 Green Detection Reagent was diluted into PBS with 5% FBS to avoid fluorescence background. […] Fluorescence intensity was measured using a Fluoroskan Ascent FL plate reader (Labsystem, Sweden). Cysteine protease activity was expressed as a ratio of fluorescence of the drug-treated samples to the corresponding untreated controls (taken as 100%). In some experimental variants, cells were preincubated for 1 h with VE-821 (10 µM) or Z-FA-FMK (caspas-3 inhibitor, 0.5 µM) to confirm that the fluorescence observed in both control and drug-treated cells was due to the presence of caspase-3/7 in samples. […]

Assay [2] deals with caspase-3/7 in HL-60 cells. Description: Caspase 3/7 assay, HL-60. Particulars: HL-60, 48 h. As to the method: The activities of caspases-3 and −7 were estimated with CellEvent™ Caspse-3/7 Green Detection Reagent (Thermo Fisher Scientific) according to the manufacturer’s protocol. The cells were seeded on 96-well plates (15 × 10^3/ well) and 24 h later, incubated with the appropriate drugs for 24 h or 48 h. The cells were fixed by adding a final concentration of 4% paraformaldehyde solution (10 min, room temperature). Cells were labeled with CellEvent™Caspase-3/7 Green Detection Reagent (5 µM), followed by Hoechst 33342 (5 µg/ml) for 15 minutes in complete medium3. Caspase-3/7 Green Detection Reagent was diluted into PBS with 5% FBS to avoid fluorescence background. After activation of caspase-3/7 in apoptotic cells, the DEVD peptide was cleaved, enabling the dye to bind DNA, which produced a bright, fluorogenic response with absorption/emission maxima of 502/530 nm according with manufacture protocol. Fluorescence intensity was measured using a Fluoroskan Ascent FL plate reader (Labsystem, Sweden). Cysteine protease activity was expressed as a ratio of fluorescence of the drug-treated samples to the corresponding untreated controls (taken as 100%). In some experimental variants, cells were preincubated for 1 h with VE-821 (10 µM) or Z-FA-FMK (caspas-3 inhibitor, 0.5 µM) to confirm that the fluorescence observed in both control and drug-treated cells was due to the presence of caspase-3/7 in samples. The caspase 3/7 signal was normalized to the Hoechst 33342 staining intensity to account for differences in cell seeding density (description in: Intracellular calcium assay section).

Assay [3] relates to MOLT-4 cells. Description: Alkaline comet assay, MOLT-4. Particulars: MOLT-4, 48 h, 80 nM. As to the method: (§2) Single cell gel electrophoresis (comet assay) was used to detect alkali labile sites, single and double DNA strand breaks, and cross-links induced by genotoxic agents. After electrophoresis and gel staining with 4,6-diamidino-2-phenylindole (DAPI), the released DNA was visible under a fluorescence microscope as a characteristic comet tail. The cells were plated on 24-well plates (20,000 cells/mL) and treated with CLA, CLA-FMOR, CLA-FPIP, or CLA-FPIR at the indicated concentrations for 2, 24, and 48 h at 37 °C. Some cells were preincubated with an ATR kinase inhibitor (VE-821) for 1 h at 37 °C before adding the tested compounds. Next, cells were collected into Eppendorf tubes and rinsed with PBS. Then, cells were suspended in 0.75% low melting point (LMP) agarose dissolved in PBS (pH 7.4) and placed on microscope slides precoated with 0.5% normal melting point (NMP) agarose. […] The slides were stored in a wet chamber at 4 °C and analyzed under a fluorescence microscope. Fifty randomly selected cells from each slide were measured using image analysis (Nikon, Japan) attached to a COHU 4910 video camera, which was equipped with a UV-1 filter block consisting of an excitation filter (359 nm) and a barrier filter (461 nm) connected to the image analysis system Lucia-Comet v. […] In the samples preincubated with VE-821, the level of DNA damage associated with the ATR kinase was determined.

Assay [4] concerns dCK in MOLT-4 cells. The experiment in a line: Deoxycytidine kinase activity, MOLT-4. Particulars: MOLT-4, 24 h incubation. As to the method:
Deoxycytidine kinase activity was measured in accordance with the manufacturer’s protocol. The cells, at final concentration were plated at 1 × 10^6 cells per 24-well plates and cultured with the tested compounds for 24 h. Some cells were preincubated with an ATR kinase inhibitor (VE-821) for 1 h at 37 °C before adding the tested compounds. After drug treatment, the cells were washed with PBS and resuspended in an ice-cold cytosol extraction buffer containing 1 mM phenylmethylsulfonyl fluoride (PMSF) and a protease inhibitor cocktail. The cell lysate was centrifuged at 10,000 × g for 30 min at 4 °C. The protein concentration was determined using the Bradford method. The supernatant (cytosolic fraction) was collected and stored at −80 °C. The clarified cytoplasm extracts, dCK standards, and blank control were added to the appropriate microtiter plate wells with a biotin-conjugated polyclonal antibody prepared specifically for dCK. Avidin conjugated to horseradish peroxidase (HRP) was added to each microplate well and incubated. Then, a TMB substrate solution was added to the plate. […] The enzyme-substrate reaction was terminated by addition of a sulfuric acid solution. The color change was measured spectrophotometrically at a wavelength of 450 nm using a microplate reader (BioTek).

In assay [5] the test system is γH2AX in HL-60 cells. Description: H2AX (phospho S139) In-Cell ELISA, HL-60. Particulars: HL-60, 48 h, versus control cells. The protocol:
The level H2AX protein phosphorylated Ser139 was measured in tested leukemia cells by using of In-Cell ELISA, ICE assay kit. The cells were seeded on 96-well plates (100 × 10^3/well) and 48 h later, incubated with the appropriate compounds. In some experimental variants, cells were preincubated for 1 h with VE-821 (10 µM). The cells were fixed by adding a final concentration of 4% paraformaldehyde solution (10 min, room temperature). After 2 h of Block Solution incubation, cells were treated with a highly specific antibody. A rabbit monoclonal antibody specific to H2AX (phospho S139) was used (at 1:100, 2 h incubation). Next Secondary Antibody Solution (at 1:1000) were added to the cells. The measurements were obtained on a fluorescence plate reader at an excitation wavelength of 680 nm and emission at 694 nm. The cells were PBS washed and 100 µL of Janus Green Stain was added to each well of the plate (5 min., room temperature). The data were collected at excitation wavelength of 750 nm and emission at 800 nm channel (Fluoroskan Cary Eclipse). Antibody signal intensity was normalized to the total amount using Janus Green cell-stain.

Assay [6] relates to HL-60 cells. Description: Alkaline comet assay, HL-60. The note with it: HL-60, 48 h. The protocol:
as §2

The subject of assay [7] is caspase-3/7 in MOLT-4 cells. Description: Caspase 3/7 assay, MOLT-4. Particulars: MOLT-4, 48 h. The protocol: as §1

With `OC[C@H]1O[C@@H](n2cnc3c(N=CN4CCCC4)nc(Cl)nc32)C[C@@H]1O` [CLA-FPIR, [6-deamino-6-(N′, N′-l′, 4′-tetramethyleneformamidino)] cladribine], the caspase-3/7 level result in assay [1] and in assay [2] was “highest changes” throughout.
For the compound `OC[C@H]1O[C@@H](n2cnc3c(N=CN4CCOCC4)nc(Cl)nc32)C[C@@H]1O` [CLA-FMOR, [6-deamino-6-(N′, N′-3′-oxa-1′, 5′-pentamethyleneformamidine)] cladribine], the “DNA fragmentation, percentage of the DNA in the comet tail” value is given as 27% in assay [3] and 24% in assay [6] (130 nM). Also, the dCK activity entry in assay [4] is “highest dCK activity”. The “increase in γH2AX level” value in assay [5] was ~ 2.4 fold. For the same compound, in assay [6], the “DNA damage relative to that induced by the unmodified drug” value is reported as “two-fold higher”. The caspase-3/7 level result in assay [7] is “highest changes”.
